Results on 7 compounds are retold here after patent publication US5084442A, “Cyclic growth hormone releasing factor analogs and method for the manufacture thereof” (Hoffmann-La Roche Inc., priority 1988, dated 1992).

The experiment has as its system dispersed rat anterior pituitary cells (release of rat growth hormone). Nature of the experiment: In Vitro (Cell Dispersion) Assay of GRF: growth hormone release measured by RIA. The note with it: growth hormone release from cultured rat pituitary cells, 4 hours of incubation, peptide 0.8 to 200 fmol per ml; compared with natural GRF(1-44)-NH2 (= 1.0). The format is cell-based, rat (Sprague-Dawley). As to the method:
In Vitro (Cell Dispersion) Assay of GRF
Pituitaries from 30-40 male Sprague-Dawley rats (175 g) were removed aseptically after decapitation. The anterior lobes were collected, washed 3 times in sterile Hepes buffer (0.025 M) (pH 7.35) and dispersed at 37° in 20-30 ml Hepes buffer (pH 7.35) containing collagenase (4 mg per ml) and Dispase (Protease grade II, 2 mg per ml). After gentle 100-110 min vortexing and trituration by Pasteur pipette, the dispersed cells were separated by centrifugation (150×g, 4 min) and re-suspended in Hepes buffer containing neuraminidase ([…]), and 200 µg/ml ethylenediaminetetraacetic acid (EDTA) disodium salt, pH 7.35, for 10 min.
The cells were washed twice with plating medium and plated on multiwell-plates (1.5×10^5 cells per ml) using the following defined medium: F-12/DMEM/BGJ (6:3:1) (Gibco: 430-1700/430-1600/320-2591) with 2 g BSA/1., 2.38 g Hepes/1.50 mg PSN antibiotic mixture (Gibco Laboratories), 10 mg/l transferring (Sigma T2252) with 1.83 g NaHCO3 /l (Baker 3506). The medium in each well was supplemented either with a sample of the novel GRF peptide or natural GRF(1-44)-NH2 at concentrations ranging from 0.8 to 200 fmol per ml of medium. Control wells contained no supplement. Plating was done with this medium added with 2% fetal calf serum to ensure rapid fixation of the cells.
On the fourth day, the cells were washed twice with the defined medium without fetal calf serum. Finally, 900 μl of defined medium was added to each well plus 100 μl of the same medium containing each individual treatment, in triplicate. After 4 hours of incubation the medium was collected and diluted as required to conduct radioimmunoassay (RIAs) for rat growth hormone.
RIAs for rat growth hormone were conducted using Sinha's anti-murine GH immune serum and procedures according to the National Pituitary Agency using protein A to precipitate antibody antigen complex.
Regarding “Cyclo^21,25 [desNH2 Tyr^1,Ala^15 ]-GRF(1-29)-NH2”, the “RELATIVE POTENCY” value is listed as 1.47.
Consider “Cyclo^8,12;21,25 [N-MethylTyr^1,D-Ala^2, Asp^8, Ala^15 ]-GRF(1-29)-NH2”, for which the “RELATIVE POTENCY” value amounted to 0.61.
To “Cyclo^21,25 [Ala^15 ]-GRF(1-29)-NH2 [Cyclo^21,25 --[Ala^15]--GRF(1-29)--NH2]” belongs 1.27.
With “Cyclo^8,12;21,25 [Asp^8, Ala^15 ]-GRF(1-29)-NH2” the figure was 2.24; with “Cyclo^21,25 [D-Ala^2, Ala^15 ]-GRF(1-29)-NH2”, 1.99.
As for “Cyclo^21,21 [N-MethylTyr^1, D-Ala^2, Ala^15 ]-GRF(1-29)-NH2”, the “RELATIVE POTENCY” value is listed as 1.92.
With `CC[C@H](C)[C@H](NC(=O)[C@H](C)NC(=O)[C@H](CC(=O)O)NC(=O)[C@H](C)NC(=O)[C@@H](N)Cc1ccc(O)cc1)C(=O)N[C@@H](Cc1ccccc1)C(=O)N[C@H](C(=O)N[C@@H](CC(N)=O)C(=O)N[C@@H](CO)C(=O)N[C@@H](Cc1ccc(O)cc1)C(=O)N[C@@H](CCCNC(=N)N)C(=O)N[C@@H](CCCCN)C(=O)N[C@H](C(=O)N[C@@H](CC(C)C)C(=O)NCC(=O)N[C@@H](CCC(N)=O)C(=O)N[C@@H](CC(C)C)C(=O)N[C@@H](CO)C(=O)N[C@@H](C)C(=O)N[C@@H](CCCNC(=N)N)C(=O)N[C@@H](CCCCN)C(=O)N[C@@H](CC(C)C)C(=O)N[C@@H](CC(C)C)C(=O)N[C@@H](CCC(N)=O)C(=O)N[C@@H](CC(=O)O)C(=O)N[C@H](C(=O)N[C@@H](CCSC)C(=O)N[C@@H](CO)C(=O)N[C@@H](CCCNC(=N)N)C(=O)N[C@@H](CCC(N)=O)C(=O)N[C@@H](CCC(N)=O)C(=O)NCC(=O)N[C@@H](CCC(=O)O)C(=O)N[C@@H](CO)C(=O)N[C@@H](CC(N)=O)C(=O)N[C@@H](CCC(N)=O)C(=O)N[C@@H](CCC(=O)O)C(=O)N[C@@H](CCCNC(=N)N)C(=O)NCC(=O)N[C@@H](C)C(=O)N[C@@H](CCCNC(=N)N)C(=O)N[C@@H](C)C(=O)N[C@@H](CCCNC(=N)N)C(=O)N[C@@H](CC(C)C)C(N)=O)[C@@H](C)CC)C(C)C)[C@@H](C)O` [GRF(1-44)--NH2, GRF(1-44)-NH2, reference compound], the “RELATIVE POTENCY” value worked out at 1.0.
